System: HaCaT human keratinocytes
Assay: Affymetrix GeneChip microarray, transcriptional response to β-carotene and/or UVA
Type: cell-based
Conditions: β-carotene 1.5 μM
Experimental: The cell culture experiments were carried out as described. Briefly, a subclone of passage 65 HaCaT keratinocytes, selected for differentiation capacity, was used at passages 16 to 23 after subcloning. 2×10^5 cells were seeded per 60 millimeter dish. Starting the following day, the cells were pretreated for 2 days with β-carotene at 1.5 μM, a typical concentration in human plasma after moderate dietary supplementation)
β-carotene-containing medium was prepared as follows. Fresh all-E-β-carotene (DSM Nutritional Products, Kaiseraugst, Switzerland) stock solution in THF (containing 0.025% BHT; Fluka Chemie A G, Switzerland) was diluted 1:2 with ethanol and added to cell culture medium to a final concentration of 1.5 μM β-carotene. The solvent concentration in the medium was 0.5% for all treatments. β-carotene-containing medium was prepared fresh for the daily medium changes.
On day 3 of the experiment, the cells were irradiated with a Hönle sun lamp Sol 500 (270 kJ/m^2; Dr. Hönle, Germany).
Five independent, factorially designed cell irradiation experiments were analyzed by microarray hybridization. For each experiment, one chip was hybridized per treatment condition. GeneChip® analysis was done as described in [132], which is incorporated by reference, as if recited in full herein. Gene regulation by β-carotene and/or UVA was calculated relative to placebo.
Changes in gene expression were included in further analysis only if the change factor was […], and if unpaired t-tests yielded p values≦0.05. Upregulations by a […] are labeled bold, downregulations by a change factor of […] are labeled bold italics. (Table 1) To identify the pathways affected by the treatments functional information on the genes was retrieved from public literature databases.

CC1=C(/C=C/C(C)=C/C=C/C(C)=C/C=C/C=C(C)/C=C/C=C(C)/C=C/C2=C(C)CCCC2(C)C)C(C)(C)CCC1 [β-carotene, All-E-β-carotene]
UVA induction of MMP-10, microarray (5 hours after UVA, UVA alone 4.6 fold): 3.2 fold
5-aminolevulinate synthase (Y00451) change factor (unirradiated): 0.08
AAC11 (U83857) change factor (unirradiated): −0.6
AP-2α (M36711) change factor (unirradiated): −0.02
ATF4; activating transcription factor 4 (AL022312) change factor (unirradiated): 0.11
BAXγ (L22475) change factor (unirradiated): 0.8
BAXδ (U19599) change factor (unirradiated): 0.6
BMP2a; bone morphogenetic protein 2a (bmp-2a) (M22489) change factor (unirradiated): −1.2
BPAG1; bullous pemphigoid antigen (M69225) change factor (unirradiated): −0.5
BUB1; mitotic checkpoint kinase (AF053305) change factor (unirradiated): −0.5
C-FOS (V01512) change factor (unirradiated): −0.14
C-FOS (V01512, second entry) change factor (unirradiated): −0.16
C-JUN (J04111) change factor (unirradiated): −0.06
C/EBPβ; NF-IL6 (X52560) change factor (unirradiated): −0.28
C/EBPγ (U20240) change factor (unirradiated): −0.09
C/EBPδ; NF-IL6-β (M83667) change factor (unirradiated): 0.04
CDK activating kinase (X77743) change factor (unirradiated): −0.01
CDK-inhibitor p57KIP2 (KIP2) mrna (U22398) change factor (unirradiated): −0.22
CENP-A; centromere protein-A (U14518) change factor (unirradiated): −0.13
CENP-E; centromere protein-E (Z15005) change factor (unirradiated): −0.37
CENP-F; mitosin (U30872) change factor (unirradiated): −0.42
CEP110; centriole associated protein (AF083322) change factor (unirradiated): 0.15
CIP2; CDKN3 (L25876) change factor (unirradiated): −0.18
CLARP; CFLAR, alternatively spliced (AF005775) change factor (unirradiated): −0.09
COUP-TF II; ARP1; apoA1 regulatory protein (M64497) change factor (unirradiated): 0.33
COX-2, cyclooxygenase-2 (U04636) change factor (unirradiated): −1.2
CRADD; death domain containing protein (U84388) change factor (unirradiated): −0.25
DKK-1; dickkopf-1 (AB020315) change factor (unirradiated): −0.3
DNA ligase III (X84740) change factor (unirradiated): −0.5
DNA polymerase α-subunit (X06745) change factor (unirradiated): −0.43
DNA primase (subunit p58) (X74331) change factor (unirradiated): −0.16
DNA-PK, catalytic subunit (U47077) change factor (unirradiated): −0.7
DSC2; desmocollin type 2a and 2b (X56807) change factor (unirradiated): −1.1
DUSP5 (U15932) change factor (unirradiated): −0.15
DUSP7 (X93921) change factor (unirradiated): −0.46
EGFR; precursor of epidermal growth factor receptor (X00588) change factor (unirradiated): −0.6
ENDOGL-2 (AB020735) change factor (unirradiated): 0.8
ERBB3 precursor; similar to (H06628) change factor (unirradiated): 0
ERCC5; excision repair protein (L20046) change factor (unirradiated): −0.48
ERF-2 (X78992) change factor (unirradiated): 0.31
FGFR2; FGF receptor 2 (M87770) change factor (unirradiated): 0.08
FGFR3; FGF receptor (M64347) change factor (unirradiated): −1.1
FRA-1 (X16707) change factor (unirradiated): 0.14
FRA-2 (X16706) change factor (unirradiated): −0.7
GADD34 (U83981) change factor (unirradiated): −0.11
GADD153 (S62138) change factor (unirradiated): −0.45
GDF-1; growth/differentiation factor 1 (gdf-1) (M62302) change factor (unirradiated): −0.8
GEM (U10550) change factor (unirradiated): −2.6
HB-EGF; heparin-binding egf-like growth factor (M60278) change factor (unirradiated): 0.33
HER3; epidermal growth factor receptor (her3) (M34309) change factor (unirradiated): −0.28
HER3; epidermal growth factor receptor (her3) (M34309, second entry) change factor (unirradiated): −0.6
HM74; PAR1-related (D10923) change factor (unirradiated): 0.18
HOXA7 (AJj005814) change factor (unirradiated): −0.43
HOXC6 (S82986) change factor (unirradiated): −0.07
HOXD4 (X59373) change factor (unirradiated): −0.5
ID1 (X77956) change factor (unirradiated): −0.01
ID1 (X77956, second entry) change factor (unirradiated): −0.11
ID3; HEIR1 (AL021154) change factor (unirradiated): −0.43
ID-2H (D13891) change factor (unirradiated): −0.7
ID-4 (AL022726) change factor (unirradiated): −0.08
IEX-1 (S81914) change factor (unirradiated): −0.08
IFIT1; IFI56 (M24594) change factor (unirradiated): 0
IFIT1; IFI56 (M24594, second entry) change factor (unirradiated): 0.05
IFIT2; ISG-54K (M14660) change factor (unirradiated): 0.18
IFIT2; ISG-54K (M14660, second entry) change factor (unirradiated): −0.21
IFIT4; IFI60; cig5; RIGG (AF026941) change factor (unirradiated): −0.23
IGF-BP 3; insulin-like growth factor-binding protein-3 gene (M35878) change factor (unirradiated): 0.29
IGF-BP 3; insulin-like growth factor-binding protein-3 gene (M35878, second entry) change factor (unirradiated): 0.22
IL6; Interleukin 6; IFNβα2a (X04430) change factor (unirradiated): 0.6
IL18; IGIF (IFNγ inducing factor) (D49950) change factor (unirradiated): −0.8
ILK; integrin-linked kinase (U40282) change factor (unirradiated): −0.23
IRF-1; interferon regulatory factor 1 (L05072) change factor (unirradiated): 0.16
IRF-7b; interferon regulatory factor 7b (U53831) change factor (unirradiated): 0.16
IRF-9; p48; ISGF3γ (M97935) change factor (unirradiated): −0.18
JUNB (M29039) change factor (unirradiated): −0.38
JUNB (X51345) change factor (unirradiated): −0.5
JUND (X56681) change factor (unirradiated): 0.6
JUND (X56681, second entry) change factor (unirradiated): 0.01
JUND (X56681, third entry) change factor (unirradiated): 0
K-RAS (M54968) change factor (unirradiated): −0.6
KINESIN-LIKE 2; HSET (AL021366) change factor (unirradiated): −0.34
KINESIN-LIKE 2; HSET (D14678) change factor (unirradiated): −0.04
KINESIN-LIKE 2; HSET (D14678, second entry) change factor (unirradiated): 0.03
KINESIN-LIKE 5; KNSL5; MKLP-1; mitotic kinesin-like protein-1 (X67155) change factor (unirradiated): −0.15
KINESIN-LIKE 6; KNSL6; MCAK; mitotic centromere-associated kinesin (U63743) change factor (unirradiated): −0.15
KINESIN_LIKE 1; KNSL1; HKSP; EG5 (U37426) change factor (unirradiated): −0.04
KLF4; EZF (epithelial Zn finger) (U70663) change factor (unirradiated): −0.17
KRS-2; stress responsive serine/threonine protein kinase (U60207) change factor (unirradiated): −0.8
KU (p70/p80) (M30938) change factor (unirradiated): −0.18
LIM kinase 2 (limk-2) (D45906) change factor (unirradiated): −0.3
Lekti (AJ228139) change factor (unirradiated): 0.48
MAD3L; mitotic checkpoint kinase (AF053306) change factor (unirradiated): −0.18
MAF-F (AL021977) change factor (unirradiated): −0.26
MAP kinase phosphatase (mkp-2) (U48807) change factor (unirradiated): 0
MAPK9; JNK2 (U09759) change factor (unirradiated): −0.36
MAPK14; p38; csaids binding protein (csbp1) (L35263) change factor (unirradiated): −0.38
MAPKK3b; MKK3b (D87116) change factor (unirradiated): −0.06
MAPKK MEK5b (U71087) change factor (unirradiated): −0.16
MAPKKK5; ASK1 (U67156) change factor (unirradiated): −0.06
MEIS2 (AF017418) change factor (unirradiated): 0.26
MMP10 (X07820) change factor (unirradiated): −1.3
MMP-1 (M13509) change factor (unirradiated): −1.61
MMP-3 (X05232) change factor (unirradiated): −0.46
